According to patent US12723063B2, “GIPR-agonist compounds” (Eli Lilly and Company, priority 2019, dated 2026):
*1 amine or outer side, *2 acyl side, *3 side chain or, on linkers, in order; H or OH if unused. Where a SMILES comes first, the peptide text is derived from it. Side-chain parts run from the residue outwards. [ ]: non-standard residue; d: D form. The star is where a group is joined. C20 diacid = O=C(O)CCCCCCCCCCCCCCCCCCC(=O)*; αMePhe(2-F) = C[C@](N)(Cc1ccccc1F)C(=O)O; γGlu = O=C(O)[C@H](CCC(=O)[*:2])N[*:1]; 4Pal = N[C@@H](Cc1ccncc1)C(=O)O; αMeL = CC(C)C[C@](C)(N)C(=O)O; AEEA = NCCOCCOCC(=O)O; Aib = CC(C)(N)C(=O)O

Biological target: T1, human GcgR (Homo sapiens, UniProt P47871)
T1 construct: expressed in transfected cells; crude membranes
T1 sequence (P47871 26-477): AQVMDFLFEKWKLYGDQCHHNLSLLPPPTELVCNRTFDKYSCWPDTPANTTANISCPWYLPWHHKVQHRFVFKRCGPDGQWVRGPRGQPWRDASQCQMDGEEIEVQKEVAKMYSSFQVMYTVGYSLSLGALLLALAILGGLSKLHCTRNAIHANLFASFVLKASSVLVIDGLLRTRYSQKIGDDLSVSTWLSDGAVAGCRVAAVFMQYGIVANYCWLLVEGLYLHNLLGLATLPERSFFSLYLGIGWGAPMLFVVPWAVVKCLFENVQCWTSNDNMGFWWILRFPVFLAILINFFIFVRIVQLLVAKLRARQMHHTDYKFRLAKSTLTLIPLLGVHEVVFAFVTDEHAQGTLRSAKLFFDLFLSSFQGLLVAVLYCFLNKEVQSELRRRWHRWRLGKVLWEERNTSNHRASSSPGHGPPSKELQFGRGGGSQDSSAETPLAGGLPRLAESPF
Assay: [125I]-Glucagon binding, SPA with WGA beads, 0.1% bacitracin
Settings: geometric mean, read-out: hGcgR Ki
In short: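 SPA competition binding with WGA beads on crude membranes from HEK293 cells stably expressing hGcgR. Buffer: 25 mM HEPES pH 7.4, 2.5 mM CaCl2, 1 mM MgCl2, 0.1% bacitracin, 0.003% Tween-20; 10-point 3-fold dilutions, NSB with 1 μM Gcg.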

SMILES	Ki [nM]
CC[C@H](C)[C@H](NC(=O)[C@H](Cc1ccccc1)NC(=O)[C@@H](NC(=O)CNC(=O)[C@H](CCC(=O)O)NC(=O)C(C)(C)NC(=O)[C@@H](N)Cc1ccc(O)cc1)[C@@H](C)O)C(=O)N[C@@H](CO)C(=O)N[C@@H](CC(=O)O)C(=O)N[C@@H](Cc1ccc(O)cc1)C(=O)N[C@@H](CO)C(=O)N[C@H](C(=O)N[C@@](C)(CC(C)C)C(=O)N[C@@H](CC(C)C)C(=O)N[C@@H](CC(=O)O)C(=O)N[C@@H](CCCCN)C(=O)N[C@@H](CCCCNC(=O)COCCOCCNC(=O)COCCOCCNC(=O)CC[C@H](NC(=O)CCCCCCCCCCCCCCCCCCC(=O)O)C(=O)O)C(=O)N[C@@H](Cc1c[nH]cn1)C(=O)N[C@@H](CCC(N)=O)C(=O)NC(C)(C)C(=O)N[C@@H](CCC(=O)O)C(=O)N[C@@H](Cc1ccccc1)C(=O)N[C@H](C(=O)N[C@@H](CCC(=O)O)C(=O)N[C@@H](Cc1ccncc1)C(=O)N[C@@H](CC(C)C)C(=O)N[C@@H](CC(C)C)C(=O)N[C@@H](C)C(=O)N[C@@H](CCC(N)=O)C(=O)NCC(=O)N1CCC[C@H]1C(=O)N[C@@H](CO)C(=O)N[C@@H](CO)C(=O)NCC(=O)N[C@@H](C)C(=O)N1CCC[C@H]1C(=O)N1CCC[C@H]1C(=O)N1CCC[C@H]1C(=O)N[C@@H](CO)C(N)=O)C(C)C)[C@@H](C)CC [Example 57] (H-Y[Aib]EGTFISDYSI[αMeL]LDKK([AEEA-AEEA-γGlu-C20 diacid])HQ[Aib]EFVE[4Pal]LLAQGPSSGAPPPS-NH2)	422
CC[C@H](C)[C@H](NC(=O)[C@H](CO)NC(=O)[C@H](Cc1ccc(O)cc1)NC(=O)[C@H](CC(=O)O)NC(=O)[C@H](CO)NC(=O)[C@@H](NC(=O)[C@](C)(Cc1ccccc1F)NC(=O)[C@@H](NC(=O)CNC(=O)[C@H](CCC(=O)O)NC(=O)C(C)(C)NC(=O)[C@@H](N)Cc1ccc(O)cc1)[C@@H](C)O)[C@@H](C)CC)C(=O)N[C@@H](C)C(=O)N[C@@H](CC(C)C)C(=O)N[C@@H](CC(=O)O)C(=O)N[C@@H](CCCCN)C(=O)N[C@@H](CCCCNC(=O)COCCOCCNC(=O)COCCOCCNC(=O)CC[C@H](NC(=O)CCCCCCCCCCCCCCCCCCC(=O)O)C(=O)O)C(=O)N[C@@H](Cc1c[nH]cn1)C(=O)N[C@@H](CCC(N)=O)C(=O)NC(C)(C)C(=O)N[C@@H](CC(=O)O)C(=O)N[C@@H](Cc1ccccc1)C(=O)N[C@H](C(=O)N[C@@H](CCC(=O)O)C(=O)N[C@@H](Cc1ccncc1)C(=O)N[C@@H](CC(C)C)C(=O)N[C@@H](CC(C)C)C(=O)N[C@@H](CCC(=O)O)C(=O)NCC(=O)NCC(=O)N1CCC[C@H]1C(=O)N[C@@H](CO)C(=O)N[C@@H](CO)C(=O)NCC(=O)N[C@@H](C)C(=O)N1CCC[C@H]1C(=O)N1CCC[C@H]1C(=O)N1CCC[C@H]1C(=O)N[C@@H](CO)C(N)=O)C(C)C [Example 39] (H-Y[Aib]EGT[αMePhe(2-F)]ISDYSIALDKK([AEEA-AEEA-γGlu-C20 diacid])HQ[Aib]DFVE[4Pal]LLEGGPSSGAPPPS-NH2)	76
CC[C@H](C)[C@H](NC(=O)[C@H](Cc1ccccc1)NC(=O)[C@@H](NC(=O)CNC(=O)[C@H](CCC(=O)O)NC(=O)C(C)(C)NC(=O)[C@@H](N)Cc1ccc(O)cc1)[C@@H](C)O)C(=O)N[C@@H](CO)C(=O)N[C@@H](CC(=O)O)C(=O)N[C@@H](Cc1ccc(O)cc1)C(=O)N[C@@H](CO)C(=O)N[C@H](C(=O)N[C@@](C)(CC(C)C)C(=O)N[C@@H](CC(C)C)C(=O)N[C@@H](CC(=O)O)C(=O)N[C@@H](CCCCN)C(=O)N[C@@H](CCCCNC(=O)COCCOCCNC(=O)COCCOCCNC(=O)CC[C@H](NC(=O)CCCCCCCCCCCCCCCCCCC(=O)O)C(=O)O)C(=O)N[C@@H](Cc1c[nH]cn1)C(=O)N[C@@H](CCC(N)=O)C(=O)NC(C)(C)C(=O)N[C@@H](CC(=O)O)C(=O)N[C@@](C)(Cc1ccccc1)C(=O)N[C@H](C(=O)N[C@@H](CCC(=O)O)C(=O)N[C@@H](Cc1ccncc1)C(=O)N[C@@H](CC(C)C)C(=O)N[C@@H](CC(C)C)C(=O)N[C@@H](C)C(=O)NCC(=O)NCC(=O)N1CCC[C@H]1C(=O)N[C@@H](CO)C(=O)N[C@@H](CO)C(=O)NCC(=O)N[C@@H](C)C(=O)N1CCC[C@H]1C(=O)N1CCC[C@H]1C(=O)N1CCC[C@H]1C(=O)N[C@@H](CO)C(N)=O)C(C)C)[C@@H](C)CC [Example 56]	193
CC[C@H](C)[C@H](NC(=O)[C@H](Cc1ccccc1)NC(=O)[C@@H](NC(=O)CNC(=O)[C@H](CCC(=O)O)NC(=O)C(C)(C)NC(=O)[C@@H](N)Cc1ccc(O)cc1)[C@@H](C)O)C(=O)N[C@@H](CO)C(=O)N[C@@H](CC(=O)O)C(=O)N[C@@H](Cc1ccc(O)cc1)C(=O)N[C@@H](CO)C(=O)N[C@H](C(=O)N[C@@](C)(CC(C)C)C(=O)N[C@@H](CC(C)C)C(=O)N[C@@H](CC(=O)O)C(=O)N[C@@H](CCCCN)C(=O)N[C@@H](CCCCNC(=O)COCCOCCNC(=O)COCCOCCNC(=O)CC[C@H](NC(=O)CCCCCCCCCCCCCCCCCCC(=O)O)C(=O)O)C(=O)N[C@@H](Cc1c[nH]cn1)C(=O)N[C@@H](CCC(N)=O)C(=O)NC(C)(C)C(=O)N[C@@H](CC(=O)O)C(=O)N[C@@H](Cc1ccccc1)C(=O)N[C@H](C(=O)N[C@@H](CCC(=O)O)C(=O)N[C@@H](Cc1ccncc1)C(=O)N[C@@H](CC(C)C)C(=O)N[C@@H](CC(C)C)C(=O)N[C@@H](C)C(=O)NCC(=O)NCC(=O)N1CCC[C@H]1C(=O)N[C@@H](CO)C(=O)N[C@@H](CO)C(=O)NCC(=O)N[C@@H](C)C(=O)N1CCC[C@H]1C(=O)N1CCC[C@H]1C(=O)N1CCC[C@H]1C(=O)N[C@@H](CO)C(N)=O)C(C)C)[C@@H](C)CC [Example 48]	267
CC[C@H](C)[C@H](NC(=O)[C@H](Cc1ccccc1)NC(=O)[C@@H](NC(=O)CNC(=O)[C@H](CCC(=O)O)NC(=O)C(C)(C)NC(=O)[C@@H](N)Cc1ccc(O)cc1)[C@@H](C)O)C(=O)N[C@@H](CO)C(=O)N[C@@H](CC(=O)O)C(=O)N[C@@H](Cc1ccc(O)cc1)C(=O)N[C@@H](CO)C(=O)N[C@H](C(=O)N[C@@](C)(CC(C)C)C(=O)N[C@@H](CC(C)C)C(=O)N[C@@H](CC(=O)O)C(=O)N[C@@H](CCCCN)C(=O)N[C@@H](CCCCNC(=O)COCCOCCNC(=O)COCCOCCNC(=O)CC[C@H](NC(=O)CCCCCCCCCCCCCCCCCCC(=O)O)C(=O)O)C(=O)N[C@@H](Cc1c[nH]cn1)C(=O)N[C@@H](CCC(N)=O)C(=O)NC(C)(C)C(=O)N[C@@H](CC(=O)O)C(=O)N[C@@H](Cc1ccccc1)C(=O)N[C@H](C(=O)N[C@@H](CCC(=O)O)C(=O)N[C@@H](Cc1c[nH]c2ccccc12)C(=O)N[C@@H](CC(C)C)C(=O)N[C@@H](CC(C)C)C(=O)N[C@@H](CCC(=O)O)C(=O)N[C@H](C(=O)NCC(=O)N1CCC[C@H]1C(=O)N[C@@H](CO)C(=O)N[C@@H](CO)C(=O)NCC(=O)N[C@@H](C)C(=O)N1CCC[C@H]1C(=O)N1CCC[C@H]1C(=O)N1CCC[C@H]1C(=O)N[C@@H](CO)C(N)=O)[C@@H](C)O)C(C)C)[C@@H](C)CC [Example 71] (H-Y[Aib]EGTFISDYSI[αMeL]LDKK([AEEA-AEEA-γGlu-C20 diacid])HQ[Aib]DFVEWLLETGPSSGAPPPS-NH2)	102
CC[C@H](C)[C@H](NC(=O)[C@H](Cc1ccccc1)NC(=O)[C@@H](NC(=O)CNC(=O)[C@H](CCC(=O)O)NC(=O)C(C)(C)NC(=O)[C@@H](N)Cc1ccc(O)cc1)[C@@H](C)O)C(=O)N[C@@H](CO)C(=O)N[C@@H](CC(=O)O)C(=O)N[C@@H](Cc1ccc(O)cc1)C(=O)N[C@@H](CO)C(=O)N[C@H](C(=O)N[C@@](C)(CC(C)C)C(=O)N[C@@H](CC(C)C)C(=O)N[C@@H](CC(=O)O)C(=O)N[C@@H](CCCCN)C(=O)N[C@@H](CCCCNC(=O)COCCOCCNC(=O)COCCOCCNC(=O)CC[C@H](NC(=O)CCCCCCCCCCCCCCCCCCC(=O)O)C(=O)O)C(=O)N[C@@H](Cc1c[nH]cn1)C(=O)N[C@@H](CCC(N)=O)C(=O)NC(C)(C)C(=O)N[C@@H](CCC(=O)O)C(=O)N[C@@H](Cc1ccccc1)C(=O)N[C@H](C(=O)N[C@@H](CCC(=O)O)C(=O)N[C@@H](Cc1ccc(O)cc1)C(=O)N[C@@H](CC(C)C)C(=O)N[C@@H](CC(C)C)C(=O)N[C@@H](CCC(=O)O)C(=O)N[C@@H](C)C(=O)NCC(=O)N1CCC[C@H]1C(=O)N[C@@H](CO)C(=O)N[C@@H](CO)C(=O)NCC(=O)N[C@@H](C)C(=O)N1CCC[C@H]1C(=O)N1CCC[C@H]1C(=O)N1CCC[C@H]1C(=O)N[C@@H](CO)C(N)=O)C(C)C)[C@@H](C)CC [Example 65] (H-Y[Aib]EGTFISDYSI[αMeL]LDKK([AEEA-AEEA-γGlu-C20 diacid])HQ[Aib]EFVEYLLEAGPSSGAPPPS-NH2)	279
CC[C@H](C)[C@H](NC(=O)[C@H](Cc1ccccc1)NC(=O)[C@@H](NC(=O)CNC(=O)[C@H](CCC(=O)O)NC(=O)C(C)(C)NC(=O)[C@@H](N)Cc1ccc(O)cc1)[C@@H](C)O)C(=O)N[C@@H](CO)C(=O)N[C@@H](CC(=O)O)C(=O)N[C@@H](Cc1ccc(O)cc1)C(=O)N[C@@H](CO)C(=O)N[C@H](C(=O)N[C@@](C)(CC(C)C)C(=O)N[C@@H](CC(C)C)C(=O)N[C@@H](CC(=O)O)C(=O)N[C@@H](CCCCN)C(=O)N[C@@H](CCCCNC(=O)COCCOCCNC(=O)COCCOCCNC(=O)CC[C@H](NC(=O)CCCCCCCCCCCCCCCCCCC(=O)O)C(=O)O)C(=O)N[C@@H](Cc1c[nH]cn1)C(=O)N[C@@H](CCC(N)=O)C(=O)NC(C)(C)C(=O)N[C@@H](CCC(=O)O)C(=O)N[C@@H](Cc1ccccc1)C(=O)N[C@H](C(=O)N[C@@H](CCC(=O)O)C(=O)N[C@@H](Cc1ccncc1)C(=O)N[C@@H](CC(C)C)C(=O)N[C@@H](CC(C)C)C(=O)N[C@@H](C)C(=O)N[C@@H](C)C(=O)NCC(=O)N1CCC[C@H]1C(=O)N[C@@H](CO)C(=O)N[C@@H](CO)C(=O)NCC(=O)N[C@@H](C)C(=O)N1CCC[C@H]1C(=O)N1CCC[C@H]1C(=O)N1CCC[C@H]1C(=O)N[C@@H](CO)C(N)=O)C(C)C)[C@@H](C)CC [Example 59]	230
